Test results from US6242482A, “Prostaglandin compounds and derivatives thereof, compositions containing the same and method of using the same for the treatment of congestive heart failure” (priority 2000, dated 2001).
Several values for one entry are separate records, joined by “and”; a condition that tells them apart may be missing. Identical values can stand only once. Entries after “also recorded” stand apart in the source; their conditions may differ. Like-named read-outs stand apart in the source and are kept apart here.

Columns and labels:
[1] = test system: Human Platelet Aggregation (collagen-induced); assay: Anti-aggregatory response after incubation with aqueous vehicle (Example 8); assay type: cell-based; conditions: up to 4 hours at 37° C
Description: (§1) Blood from healthy human volunteers who had not taken any medicine for at least 14 days was collected by venopuncture into 3.15% (w/v) tri-sodium citrate (9:1 v/v). The blood was centrifuged at 800 g for 15 minutes to produce PRP. The PRP was further centrifuged at 12,000 g for 1 minute to produce PPP. A total of 12 volunteers donated blood for the study.
(§2) Platelet aggregation was studied using a dual channel Payton aggregometer calibrated with PRP (0%) and PPP (100%) with respect to the degree of light transmission. Aliquots of PRP (500 μl) were added to siliconized cuvettes, stirred (1000 revs/min) and warmed to 37° C. The platelets were incubated for 1 minute to establish a stable baseline prior to investigation. A submaximal concentration of the aggregating agent collagen (1 μg/ml) was added to the PRP and the platelet aggregation was monitored as the increase in light transmission observed over a 4 minute period.
(§3) After the incubation period, an aliquot of the PPP or aqueous vehicle (50 μl) was added to fresh PRP (450 μl) for determination of anti-platelet activity. This experiment was repeated using PPP from at least three human volunteers for each compound.

[2] = test system: Human Platelet Aggregation (collagen-induced); assay: Anti-aggregatory response after incubation with PPP (Example 8); assay type: cell-based
Description: as §1, §2, §3

[3] = test system: Human Platelet Aggregation (collagen-induced); assay: Anti-aggregatory activity, 1 min incubation with PRP, collagen-induced (Example 8); assay type: cell-based; conditions: 1 minute with PRP
Description: as §1, §2
The percentage inhibition of the platelet aggregation was calculated using the peak increase in light transmission observed over the 4 minute period following addition of collagen, as compared to that of control. This experiment was repeated using PRP from at least three human volunteers for each compound under study.

[4] = test system: mean arterial pressure and heart rate of anesthetized rats; conditions: for Time of second Δmax (superscript) / Time of Δmax (superscript) / t1/2 / Δmax (Mean Arterial Pressure) / Δmax, second value in parentheses: Table 5; for Mean Arterial Pressure: b338-b348 = 0,1,5,10,15,30,60,120,180,240,360 min
Description: Male Wistar rats (250-330 g) were anesthetized with thiopentone sodium (INTRAVAL®, 120 mg/kg i.p.). The trachea was cannulated to facilitate respiration. The right carotid artery was cannulated and connected to a pressure transducer (Spectramed P23XL), for the measurement of mean arterial pressure (MAP) and heart rate (HR) which were continuously recorded on a 4-channel Grass 7D polygraph recorder (Grass, Mass., U.S.A.). Body temperature was maintained at 37±1°C. by means of a rectal probe thermometer attached to a homeothermic blanket control unit (Harvard Apparatus Ltd.).

[5] = test system: mean arterial pressure and heart rate of anesthetized rats; assay: Systemic hemodynamic effects, intravenous, anesthetized rats (Example 9); assay type: in vivo, rat (male Wistar)
Description: Among other effects, lowering of the blood pressure inside the blood vessels is beneficial for the treatment of congestive heart failure by reducing the vascular resistance of the blood flow which substantially reduces the work load imposed on the heart. […] This study involved the use of male Wistar rats anaesthetized with thiopentone sodium ([…]®, 120 mg kg^-1 i.p.). The trachea was cannulated to facilitate breathing.

[6] = background; cited from earlier work

SMILES: CCCCCC(CCC1C(OC(C)=O)CC2Cc3c(cccc3OCC(=O)O)CC21)OC(C)=O (stereo not drawn) [Compound 4, Compound X Diacetate]
- effect of incubation with aqueous vehicle/saline/buffer on anti-platelet activity [1]: This effect was also observed during incubation of the compound in saline
- IC50 ([2]; after 15 minutes in PPP): 5 ± 0.2 µg/mL
- increase in anti-platelet activity ([2]; after 15 minutes in PPP): ~10 fold
- increase in activity on incubation with plasma or aqueous vehicle ([2]; initial ten (10) minute period, plasma or aqueous vehicle): ~10 fold
- effect of incubation with PPP on anti-platelet activity ([2]; up to 4 hours at 37° C): no further increase in activity; also recorded: this increase in activity was no greater after four (4) hours of incubation
- inhibiting aggregation by 50% concentration (IC50) [3]: 68 ± 2 µg/mL
- inhibition of platelet aggregation, concentration dependence [3]: concentration-dependent inhibition of platelet aggregation
- inhibition of aggregation response at highest concentrations ([3]; X 30 and 100 ng/ml, 4 300 μg/ml, 6 3 mg/ml, 7 10 mg/ml): completely inhibited the aggregation response
- effective life of the fall in MAP ([4]; 1 mg/kg s.c.): > 300 min
- maximum fall in MAP ([4]; 1 mg/kg s.c.): about 26 mm Hg
- time of maximum fall in MAP ([4]; 1 mg/kg s.c.): 60 min
- Time of second Δmax (superscript) ([4]; 1 mg/kg s.c.): 210 min
- Time of Δmax (superscript) ([4]; 1 mg/kg s.c.): 60 min
- t1/2 ([4]; 1 mg/kg s.c.): > 5 h
- Δmax (Mean Arterial Pressure) ([4]; 1 mg/kg s.c.): 26 ± 6 mm Hg
- Δmax, second value in parentheses ([4]; 1 mg/kg s.c.): 28 ± 7 mm Hg
- Mean Arterial Pressure ([4]; 1 mg/kg s.c.): 87 ± 3 mm Hg and 94 ± 3 mm Hg
- another fall in MAP ([4]; 1 mg/kg s.c., second fall): 28 mm Hg
- time of another fall in MAP ([4]; 1 mg/kg s.c., second fall): 210 min
- effective life of the fall in MAP ([4]; 3 mg/kg s.c.): > 330 min
- Time of Δmax (superscript) ([4]; 3 mg/kg s.c.): 30 min
- t1/2 ([4]; 3 mg/kg s.c.): > 5.5 h
- Δmax (Mean Arterial Pressure) ([4]; 3 mg/kg s.c.): 41 mm Hg
- Mean Arterial Pressure ([4]; 3 mg/kg s.c.): 87 ± 4 mm Hg
- effective life of the fall in MAP ([4]; 10 mg/kg s.c.): > 300 min
- Time of second Δmax (superscript) ([4]; 10 mg/kg s.c.): 150 min
- Time of Δmax (superscript) ([4]; 10 mg/kg s.c.): 60 min
- t1/2 ([4]; 10 mg/kg s.c.): > 5 h
- Δmax (Mean Arterial Pressure) ([4]; 10 mg/kg s.c.): 45 ± 5 mm Hg
- Δmax, second value in parentheses ([4]; 10 mg/kg s.c.): 48 ± 6 mm Hg
- effective life of the fall in MAP ([5]; 1 mg/kg i.v.): about 110 minutes
- maximum fall in MAP ([5]; 1 mg/kg i.v.): about 30 mm Hg
- time of maximum fall in MAP ([5]; 1 mg/kg i.v.): 30 min
- effective life of the fall in MAP ([5]; comparison of Compound 4 with Compound X (1 mg/kg i.v.)): over 90 minutes
- fall in MAP ([5]; i.v., Compound X 1 mg/kg, Compound 4 1-10 mg/kg, others 3-30 mg/kg): rapid, dose-related fall in MAP; also recorded: rapid and substantial falls in MAP

SMILES: CCCCC[C@H](O)/C=C/[C@@H]1[C@H]2C/C(=C/CCCC(=O)O)O[C@H]2C[C@H]1O [prostacyclin]
- effective life [6]: less than six
